The record followed here is paper PMC8273159, “In Vivo Behavior of the Antibacterial Peptide Cyclo[RRRWFW], Explored Using a 3-Hydroxychromone-Derived Fluorescent Amino Acid” (Frontiers in Chemistry, 2021).

≈ marks a conversion by molar mass, not a printed value. Numbered stars: 1 amine (or outer) side, 2 acyl side, 3 side chain; on linkers, the order of the positions; unused ones are H or OH. Square brackets hold non-standard residues; d marks the D form. Peptide text beside a SMILES is read from it. X1 = O=C([C@H](Cc1ccc2oc(-c3ccco3)c(O)c(=O)c2c1)N[*:1])[*:2]

The test system of data set [1] is human erythrocyte suspension. Put plainly: Hemolysis assay (hemoglobin release). The following applies: Tris-HCl pH 7.6, 37°C, 30 min. In kind it is cell-based. The source says: All chemicals were purchased from Sigma-Aldrich, Iris Biotech or Biosolve and were used without further purification. Ultrapure deionized (MilliQ, Millipore) water was used to prepare aqueous solutions and mixtures. Solvents for peptide purification and optical spectroscopy were of HPLC grade and were degassed before use. Culture media and supplements for animal cells were from Thermo Fisher, those for bacterial culturing were from Becton, and those for zebrafish embryo handling were freshly prepared. Citrate phosphate dextrose-stabilized blood bags with erythrocyte suspensions of healthy donors for hemolysis assays were obtained from the blood bank of the Karlsruhe municipal hospital.
Hemolytic activity was examined using the same serial twofold dilution concentrations as for the MIC assay. […] The tubes were centrifuged at 13,000 rpm for 10 min to pellet the cells, and the absorbance at 540 nm was recorded against a negative control (cells without peptide, accounting for autohaemolysis). The lysis percentage was calculated relative to lysis levels induced by 1% (v/v) Triton X-100. The absorbance measurements were repeated five times, and the averaged values were used.

The test system of data set [2] is Bacillus spizizenii (DSM 347). In kind it is cell-based. To be noted: DSM 347, 20 h. Here is the method:
(§1) Bacillus spizizenii (DSM 347) and Escherichia coli (DSM 1116) were purchased from the German Collection of Microorganisms and Cell Cultures. The bacterial strains were maintained frozen at −80°C using a bacterial Cryobank System (Mast Diagnostica). To refresh bacterial cells on single glass beads, they were grown overnight in Müller-Hinton (MH) medium, and colonies were obtained by streaking on MH agar. Then, colony cells were used to inoculate MH broth up to OD = 0.02 and grew at 37°C overnight. These overnight cultures were used to inoculate the test culture, which was grown for 3–4 h until it reached exponential growth. HeLa (ECACC 93021013) and HEK293 (ECACC 85120602) cells were purchased from […] and were routinely cultured in Roswell Park Memorial Institute (RPMI) 1640 medium or Dulbecco’s modified Eagle medium (DMEM) supplemented with 10% fetal calf serum (FCS) and 1% penicillin/streptomycin, respectively. Cells were passaged every 2–3 days and used until passage 35. All animal cell types were cultured at 37 °C in a 5% CO2 atmosphere and tested negative for mycoplasma.
(§2) The bacteriostatic activity of the peptides was characterized by determining minimal culture growth inhibitory concentrations (MICs) in planktonic cultures. Serial twofold dilutions of each peptide (in-well concentration range: 128 μg/ml to […]) were prepared in MH broth and aliquoted into round-bottom 96-well microtiter plates (Sarstedt). Each well was inoculated with a standardized inoculum to achieve a final test concentration of approximately 10^6 cells/ml. […] The measurements were repeated twice with three replicates each time.

Data set [3] relates to Escherichia coli (DSM 1116). In kind it is cell-based. To be noted: DSM 1116, 20 h. Here is the method: as §1, §2
The nature of data set [4]: Analytical C18 HPLC retention time as measure of overall hydrophobicity. In kind it is physicochemical. The following applies: chromatographic, C18 phase (Vydac), water/acetonitrile with 0.1% TFA, 1% B/min gradient, column 40°C; used to assess overall hydrophobicity. As for the experimental part:
The peptides were purified (>95%) by reversed-phase high-performance liquid chromatography (HPLC) employing C18 stationary phase columns (Vydac) and TFA-supplemented (0.1% v/v) water/acetonitrile gradients (4% eluent B/min) without temperature control on a Jasco HPLC system equipped with a diode array detector. Analytical chromatography was performed using the same stationary/mobile phase conditions, employing temperature control (column temperature 40°C) and shallower gradients (1% eluent B/min). All peptides and individual HPLC fractions were characterized by matrix-assisted laser desorption/ionization time-of-flight mass spectrometry (MALDI-TOF MS) using a Bruker Autoflex III instrument in positive reflector detection mode and with α-cyano-4-hydroxycinnamic acid as a matrix. From pure peptide powders, stock solutions were prepared (1 mg/ml) in 30% aqueous acetonitrile and stored at −80°C. For spectroscopy, imaging and bioactivity measurements, aliquots from these solutions were taken a day before the experiment, and peptide samples containing the necessary amount of peptide dry material were obtained by lyophilization overnight.

In the case of `N=C(N)NCCC[C@@H]1NC(=O)[C@H](CCCNC(=N)N)NC(=O)[C@H](Cc2c[nH]c3ccccc23)NC(=O)[C@H](Cc2ccc3oc(-c4ccco4)c(O)c(=O)c3c2)NC(=O)[C@H](Cc2c[nH]c3ccccc23)NC(=O)[C@H](CCCNC(=N)N)NC1=O` [cRW-F^2/FHC] (cyclo(RRRW[X1]W)), the “death of erythrocytes (hemolysis)” value in data set [1] (30 µM peptide, absorbance 540 nm, relative to 1% Triton X-100, five readings averaged) is listed as greater than 50%. Further, the “hemolytic activity, comparison in words” value in data set [1] (human erythrocytes, relative to 1% Triton X-100) is reported as “the most hemolytic”. Further, the “MIC B. spizizenii” value in data set [2] is recorded as 14.0 µM (≈ 15.9 µg/mL). In addition, in data set [3], the “MIC E. coli” value was found to be 28.1 µM (≈ 32 µg/mL).

Regarding `N=C(N)NCCC[C@@H]1NC(=O)[C@H](CCCNC(=N)N)NC(=O)[C@H](Cc2c[nH]c3ccccc23)NC(=O)[C@H](Cc2ccccc2)NC(=O)[C@H](Cc2ccc3oc(-c4ccco4)c(O)c(=O)c3c2)NC(=O)[C@H](CCCNC(=N)N)NC1=O` [cRW-W^1/FHC] (cyclo(FWRRR[X1])), the “MIC B. spizizenii” value in data set [2] was found to be 14.6 µM (≈ 16 µg/mL). The “MIC E. coli” value in data set [3] was 29.1 µM (≈ 32 µg/mL).

On to `N=C(N)NCCC[C@@H]1NC(=O)[C@H](CCCNC(=N)N)NC(=O)[C@H](Cc2ccc3oc(-c4ccco4)c(O)c(=O)c3c2)NC(=O)[C@H](Cc2ccccc2)NC(=O)[C@H](Cc2c[nH]c3ccccc23)NC(=O)[C@H](CCCNC(=N)N)NC1=O` [cRW-W^3/FHC] (cyclo(F[X1]RRRW)), for which the “RT (apparent retention time)” value in data set [4] was 11 min. Moreover, the “MIC B. spizizenii” value in data set [2] was determined as 14.6 µM (≈ 16 µg/mL). Also, the “MIC E. coli” value in data set [3] is 29.1 µM (≈ 32 µg/mL).

Turning to `N=C(N)NCCC[C@@H]1NC(=O)[C@H](CCCNC(=N)N)NC(=O)[C@H](Cc2c[nH]c3ccccc23)NC(=O)[C@H](Cc2ccccc2)NC(=O)[C@H](Cc2c[nH]c3ccccc23)NC(=O)[C@H](CCCNC(=N)N)NC1=O` [cWFW, cyclo[RRRWFW]] (cyclo(FWRRRW)), the “RT (apparent retention time)” value in data set [4] is reported as 9 min. Further, the “MIC B. spizizenii” value in data set [2] worked out at 4.0 µM (≈ 3.95 µg/mL). Further, in data set [3], the “MIC E. coli” value was 8.1 µM (≈ 8 µg/mL).
